Laboratory results as given in the SangsterLogP compilation.
One block for each molecule: values may come before it.

Columns and labels:
[1] = method code SF-HPLC, from DOI: 10.1023/a:1016359301852, PMID: 24271710
[2] = method code SF-HPLC, from DOI: 10.1016/j.ijpharm.2014.07.033, PMID: 25079434; conditions: pH 7.4
[3] = method code SF-AS, from DOI: 10.3109/00498258809055142, PMID: 3354228
[4] = method code SF-RC, from DOI: 10.1016/s0022-2275(20)42614-8, PMID: 2280184; conditions: pH 1.0
[5] = method code SF, from DOI: 10.1016/0014-2999(77)90010-3, PMID: 336381; conditions: pH 9.8
[6] = not given; remark: listed apart in the source
[7] = method code SF-RC, from DOI: 10.1016/j.nucmedbio.2013.04.008, PMID: 23731552; conditions: pH 7.4
[8] = method code SF-HPLC, from DOI: 10.1016/j.ejps.2006.07.007, PMID: 16997537; conditions: pH 7.4
[9] = method code SF-AS, from PMID: 4762845; conditions: pH 1.0
[10] = not given; remark: listed apart in the source
[11] = not given; remark: listed apart in the source
[12] = method code SF-LC/MS, from DOI: 10.1002/rcm.3594, PMID: 18543375; conditions: pH 7.4
[13] = not given; remark: listed apart in the source
[14] = not given; remark: listed apart in the source
[15] = not given; remark: listed apart in the source
[16] = not given; remark: listed apart in the source
[17] = not given; remark: listed apart in the source
[18] = not given; remark: listed apart in the source
[19] = method code SF-HPLC, from Xiong, Ð. (2009). Apparent partiton coefficient of hawthorn leaf flavonoids in phospholipids complex. Chinese Traditional Patent Medicine, 31(7)1075-1078.
[20] = method code SF, from DOI: 10.1016/j.bmcl.2013.12.011, PMID: 24342238
[21] = not given; remark: listed apart in the source
[22] = method code SF, from Huang, J.; Leng, X. (1993). Interaction of rat hepatocyte and cytochrome P 450 with pyrethroids in vitro. Dong Wu Xue Bao, 39(4)418-423.
[23] = not given; remark: listed apart in the source
[24] = not given; remark: listed apart in the source
[25] = not given; remark: listed apart in the source
[26] = method code SF-EIA, from DOI: 10.1016/s0022-2275(20)42614-8, PMID: 2280184; conditions: pH 1.0
[27] = not given; remark: listed apart in the source
[28] = method code SF-AS, from DOI: 10.1081/jlc-120004751
[29] = not given; remark: listed apart in the source
[30] = not given; remark: listed apart in the source
[31] = not given; remark: listed apart in the source
[32] = method code SF-AS, from PMID: 7170648; conditions: pH 7.4
[33] = method code SF-AS, from DOI: 10.1021/ja00198a050
[34] = method code SF-HPLC, from DOI: 10.1016/0378-5173(91)90409-h; conditions: pH 7.4
[35] = method code SF-HPLC, from DOI: 10.1016/j.ejps.2016.07.010, PMID: 27422078; conditions: pH 7.4
[36] = not given; remark: listed apart in the source
[37] = from Courrière, P.; Paubel, J.P.; Nivière, P.; Foussard-Blaspin, O. (1978). Structure-activity study in a series of local anesthetic agents. I. Physicochemical properties and molecular orbital study. …
[38] = not given; remark: listed apart in the source
[39] = method code SF-AS, from PMID: 7306420; conditions: pH 7.5
[40] = method code SF-RC, from DOI: 10.1016/j.nucmedbio.2008.04.004, PMID: 18589308; conditions: pH 7.4

SMILES: C#CC1(OC(=O)c2ccn(C)c2)CCC2C3CCC4=CC(=O)CCC4C3CCC21C (stereo unspecified)
logP [1]: 4.44

SMILES: CNC(=O)c1cccc2c(Nc3ccc(NS(C)(=O)=O)cc3OC)c3cccc(C)c3nc12
logD [2]: 3.26

SMILES: OCCN1CCN(CCCN2c3ccccc3C=Cc3ccccc32)CC1
logP [3]: 3

SMILES: O=c1[nH]c2ccccc2n1C1CCN(C[C@@H](O)[C@@H]2COc3ccccc3O2)CC1 (relative stereo)
logD [5]: 3.43

SMILES: O=C(Nc1cccnn1)N1CCC(=Cc2cccc(Oc3ccc(C(F)(F)F)cn3)c2)CC1
logD [7]: 3.48

SMILES: O=C(CCOCCOCCOCCOCCC(=O)Nc1c(I)cc(I)c(C(=O)O)c1I)Nc1c(I)cc(I)c(C(=O)O)c1I
logD [9]: 1.42

SMILES: COc1cc2c(c(OC)c1OC)-c1ccc(OC)c(=O)cc1[C@@H](NC(C)=O)CC2
logD [12]: 1.08

SMILES: C=CCn1nc(-c2sc(NC(=O)C(C)(C)C)nc2C)cc1C(=O)NCc1ccccc1
logP [15]: 4.33

SMILES: CC(C)(C)CC(=O)N1CCC(N(c2ccc(C(F)(F)F)cc2)c2cccnc2)CC1
logP [16]: 4.2

SMILES: C[C@@H]1O[C@@H](OC[C@H]2O[C@@H](Oc3c(-c4ccc(O)c(O)c4)oc4cc(O)cc(O)c4c3=O)[C@H](O)[C@@H](O)[C@@H]2O)[C@H](O)[C@H](O)[C@H]1O
logP [19]: -0.09

SMILES: CN(C)Cc1cc(C=CC(=O)C=C(O)C=Cc2ccc(O)c(N(C)C)c2)ccc1O
logP [20]: 3.48

SMILES: CC(C)C(C(=O)OC(C#N)c1cccc(Oc2ccccc2)c1)c1ccc(OC(F)F)cc1 (stereo unspecified)
logP [22]: 5.55

SMILES: CC(C)C(NC(=O)CN1C(=O)C(NC(=O)NCc2cc[n+]([O-])cc2)CC=C1c1ccccc1)C(=O)C(F)(F)F (stereo unspecified)
logP [23]: 1.13

SMILES: COC(=O)CC(O)CC(O)C=Cn1c(C(C)C)nc(-c2ccncc2)c1-c1ccc(F)cc1 (stereo unspecified)
logP [25]: 0.9

SMILES: C[C@]12CC[C@H](O)C[C@H]1CC[C@@H]1[C@@H]2CC[C@]2(C)[C@@H](c3ccc(=O)oc3)CC[C@]12O
logP [27]: 3.34

SMILES: Cc1cn(C2CC(N=[N+]=[N-])C(COC(=O)C(=O)NC(Cc3c[nH]c4ccccc34)C(=O)O)O2)c(=O)[nH]c1=O (stereo unspecified)
logP [28]: 0.67

SMILES: CCCCC(CC)COC(=O)c1ccccc1C(=O)OCC(CC)CCCC (stereo unspecified)
logP [30]: 7.3

SMILES: CN1CN(c2ccccc2)C2(CCN(CCCC(=O)c3ccc(I)s3)CC2)C1=O
logP [31]: 3.14

SMILES: CC(C)(C)c1ccc2c(c1)OCCOCCOCCOCCOCCOCCOCCOCCO2
logP [33]: 1.89

SMILES: NC(=O)[C@@H]1CCCN1C(=O)[C@H](Cc1cn(C2OC(=O)c3ccccc32)cn1)NC(=O)[C@@H]1CCC(=O)N1 (stereo partly specified)
logD [34]: -1.25

SMILES: Cc1cc(=O)c2c(O)cc(O)c(C3CCN(C)CC3OC(=O)c3ccccc3)c2o1 (stereo unspecified)
logD [35]: 2.33

SMILES: CCN(CC)CCCN(C(=O)Cc1ccccc1)c1c(C)cccc1C
logP [37]: 4.94

SMILES: O=C(OC[C@@H]1O[C@H](n2cc(Br)c(=O)[nH]c2=O)[C@H](F)[C@H]1OC(=O)c1ccccc1)c1ccccc1
logD [40]: 3.95

Continued, values first:

logD [4]: 2.25
SMILES: CC(CCC(=O)NCC(=O)O)C1CCC2C3CCC4CC(O)CCC4(C)C3CC(O)C12C (stereo in doubt)

logP: 3.38
SMILES: COc1cc2nc(N3CCN(C(=O)C4COc5ccccc5O4)CC3)nc(N)c2cc1OC (stereo unspecified)

logP [6]: 4.8
SMILES: CCCN(CCCCN1C(=O)CC2(CCCC2)CC1=O)C1COc2cccc(OC)c2C1 (stereo unspecified)

logD [8]: 2.37
SMILES: CCOC(=O)C1OC(Oc2cc3oc(-c4ccc(O)cc4)cc(=O)c3c(O)c2O)C(O)C(O)C1O (stereo unspecified)

logP [10]: 3.4
SMILES: c1cncc(-c2cnn3cc(-c4ccc(OCCN5CCCCC5)cc4)cnc23)c1

logP [11]: -1.52
SMILES: CC(=O)N(O)CCCCCNC(=O)CCC(=O)N(O)CCCCCNC(=O)CCC(=O)N(O)CCCCCN

logP [13]: 2.57
SMILES: O=C(NNCc1ccncc1)C1CCCN1C(=O)C(Cc1ccc(Cl)c(Cl)c1)NS(=O)(=O)Cc1ccccc1 (stereo unspecified)

logP [14]: 2.1
SMILES: Cc1cc(C(=O)Nc2ccc(-c3ccccc3S(N)(=O)=O)cc2)n(-c2ccc3onc(N)c3c2)n1

logP [17]: 3.8
SMILES: COc1cccc([C@H](O)C2CCN(CCc3ccc(F)cc3)CC2)c1OC

logP [18]: 1.53
SMILES: COc1cccc2c1C(=O)c1c(O)c3c(c(O)c1C2=O)C[C@@](O)(C(=O)CO)C[C@@H]3O[C@H]1C[C@H](N)[C@H](I)[C@H](C)O1

logP [21]: 8.14
SMILES: CCCCCCCCCCCCC(Br)C(=O)OCC1OC(n2cc(C)c(=O)[nH]c2=O)CC1N=[N+]=[N-] (stereo unspecified)

logP [24]: 3.78
SMILES: CN1CCc2cc(Cl)c(O)cc2[C@@H](c2ccc(SCc3ccccc3)cc2)C1

logD [26]: 3.08
SMILES: C[C@H](CCC(=O)O)[C@H]1CC[C@H]2[C@@H]3C[C@H](O)[C@@H]4C[C@H](O)CC[C@]4(C)[C@H]3CC[C@]12C

logP [29]: 7.64
SMILES: c1cc2ccc3ccc4ccc5ccc6ccc1c1c2c3c4c5c61

logD [32]: 3.95
SMILES: CCN(CC)C(=O)N1CCN(Cc2cc(Nc3ccnc4cc(Cl)ccc34)ccc2O)CC1

logP [36]: 7.17
SMILES: COc1ccc(C=Cc2ccc(C=Cc3ccc(OC)c(C(F)(F)F)c3)c(O)c2)cc1C(F)(F)F

logP [38]: 3.48
SMILES: CC(=O)O[C@]1(C(C)=O)CC[C@H]2[C@@H]3C[C@H](F)C4=CC(=O)CC[C@]4(C)[C@H]3CC[C@@]21C

logD [39]: 2.02
SMILES: CS(=O)(=O)c1ccc2c(c1)N(CCCN1CCC(C(N)=O)CC1)c1ccccc1S2
